The values below come from publication PMC10611796, “The α-synuclein PET tracer [18F] ACI-12589 distinguishes multiple system atrophy from other neurodegenerative diseases” (Nature Communications, 2023).

For the assay, the target named is T1, α-synuclein (Homo sapiens, UniProt P37840).
T1 construct: gene SNCA; pathological α-syn aggregates in post-mortem human brain tissue
The assay can be described thus: radioligand saturation binding (autoradiography and radiobinding) on human brain tissue; displacement by unlabeled ACI-12589; micro-autoradiography.

Regarding ACI-12589, binding was characterised by a dissociation constant (Kd) of 33.5 ± 17.4 nM.

A word on the Kd: it is the concentration at which binding is half-saturated.
